From patent US12642270B2, “Substituted thiophene carboxamides, thiophene carboxylic acids and derivatives thereof” (Bayer Aktiengesellschaft, priority 2019, dated 2026)

Assay: Log P by HPLC on reversed phase columns (EEC directive 79/831 Annex V.A8)
Type: physicochemical
Settings: method marked [a]
Outline: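 Reversed-phase HPLC per EEC 79/831 Annex V.A8, LC-UV with 10→95% acetonitrile linear gradient; eluent [a] 0.1% formic acid (acidic), [b] 0.001 M ammonium acetate (neutral), [c] 0.1% phosphoric acid (acidic). Calibrated with C3–C16 straight-chain alkan-2-ones, linear interpolation of retention times; multiple values joined by "+".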

Row | LogP | SMILES
1 | 3.04^[a] | COC(=O)C1(NC(=S)c2sc(C#N)c(Cl)c2C)CC1 [1.0290]
2 | 1.79^[a] | Cc1c(C(=O)NC2(C(=O)O)CC2)sc(C#N)c1Cl [1.0291]
3 | 2.97^[a] | O=C(NC(C(=O)O)C1CC1)c1sc(Br)c(Br)c1I (stereo not shown) [1.0292]
4 | 2.94^[a] | O=C(NC(C(=O)O)C1CC1)c1sc(Br)c(Br)c1Cl (stereo not shown) [1.0293]
5 | 2.64^[a] | O=C(NC(C(=O)O)C1CC1)c1sc(Br)c(Br)c1F (stereo not shown) [1.0294]
6 | 2.77^[a] | CCOC(=O)C1(NC(=O)c2sc(F)c(Cl)c2C)CC1 [1.0298]
7 | 2.49^[a] | CCOC(=O)C1(NC(=O)c2cc(F)c(Cl)s2)CC1 [1.0308]
8 | 2.57^[a] | CCOC(=O)C1(NC(=O)c2cc(Br)c(F)s2)CC1 [1.0312]
9 | 2.31^[a] | COC(=O)CNC(=O)c1sc(F)c(Br)c1C [1.0316]
10 | 2.83^[a] | CCOC(=O)C1(NC(=O)c2sc(F)c(Br)c2C)CC1 [1.0318]
11 | 4.51^[a] | CCOC(=O)C1(NC(=S)c2sc(Cl)c(Cl)c2Br)CC1 [1.0323]
12 | 2.41^[a] | O=C(NC1(C(=O)O)CC1)c1sc(Cl)c(Br)c1Cl [1.0324]
13 | 4.55^[a] | CCOC(=O)C1(NC(=S)c2sc(Cl)c(Br)c2Cl)CC1 [1.0325]
14 | 3.37^[a] | CCOC(=O)CN(OC)C(=O)c1sc(Br)c(Br)c1F [1.0327]
15 | 3.91^[a] | COC(=O)C1(NC(=S)c2sc(Br)c(Br)c2F)CC1 [1.0328]
16 | 2.95^[a] | O=C(O)C1(NC(=S)c2sc(Br)c(Br)c2F)CC1 [1.0329]
17 | 2.36^[a] | COC(=O)[C@H](CCC(=O)O)NC(=O)c1sc(Br)c(Br)c1F [1.0330]
18 | 4.74^[a] | CCOC(=O)C1(NC(=S)c2sc(Br)c(Br)c2F)CCC1 [1.0331]
19 | 3.71^[a] | COC(=O)C1(NC(=S)c2sc(Cl)c(Br)c2C)CC1 [1.0332]
20 | 4.11^[a] | COC(=O)C1(NC(=S)c2sc(Br)c(Br)c2Cl)CC1 [1.0333]
21 | 4.06^[a] | COC(=O)C1(NC(=S)c2sc(Cl)c(Cl)c2Br)CC1 [1.0334]
22 | 3.10^[a] | COC(=O)C1(NC(=S)c2sc(C#N)c(Br)c2C)CC1 [1.0335]
23 | 3.03^[a] | COC(=O)C1(NC(=S)c2cc(Br)c(C#N)s2)CC1 [1.0336]
24 | 3.20^[a] | CCOC(=O)C1(NC(=O)c2sc(Br)c(Br)c2C(F)F)CC1 [1.0341]
25 | 3.70^[a] | CCOC(=O)C1(NC(=O)c2sc(Cl)c(Cl)c2F)CCC1 [1.0347]
26 | 3.19^[a] | COC(=O)C(CC(F)F)NC(=O)c1sc(Cl)c(Cl)c1F (stereo not shown) [1.0349]

Row | LogP | SMILES
27 | 2.54^[a] | N#CCNC(=O)c1sc(Br)c(Br)c1C(F)F [1.0353]
28 | 2.66^[a] | COC(=O)CNC(=O)c1sc(Br)c(Br)c1C(F)F [1.0354]
29 | 3.01^[a] | CCOC(=O)CNC(=O)c1sc(Br)c(Br)c1C(F)F [1.0355]
30 | 2.86^[a] | COC(=O)C1(NC(=O)c2sc(Br)c(Br)c2C(F)F)CC1 [1.0356]
31 | 3.35^[a] | CCOC(=O)C(C)NC(=O)c1sc(Br)c(Br)c1C(F)F (stereo not shown) [1.0357]
32 | 3.37^[a] | COC(=O)C(NC(=O)c1sc(Br)c(Br)c1C(F)F)C1CC1 (stereo not shown) [1.0358]
33 | 3.67^[a] | CCOC(=O)C1(NC(=O)c2sc(Br)c(Br)c2C(F)F)CCC1 [1.0359]
34 | 4.16^[a] | CCOC(=O)C(NC(=O)c1sc(Br)c(Br)c1C(F)F)C(C)C (stereo not shown) [1.0360]
35 | 3.28^[a] | COC(=O)C(CC(F)F)NC(=O)c1sc(Br)c(Br)c1C(F)F (stereo not shown) [1.0361]
36 | 4.45^[a] | CCOC(=O)C(CC(C)C)NC(=O)c1sc(Br)c(Br)c1C(F)F (stereo not shown) [1.0362]
37 | 3.89^[a] | CCOC(=O)C(CCSC)NC(=O)c1sc(Br)c(Br)c1C(F)F (stereo not shown) [1.0363]
38 | 4.34^[a] | CCOC(=O)C(Cc1ccccc1)NC(=O)c1sc(Br)c(Br)c1C(F)F (stereo not shown) [1.0364]
39 | 2.61^[a] | N#CCNC(=O)c1sc(Br)c(Br)c1C(F)(F)F [1.0365]
40 | 2.71^[a] | COC(=O)CNC(=O)c1sc(Br)c(Br)c1C(F)(F)F [1.0366]
41 | 3.05^[a] | CCOC(=O)CNC(=O)c1sc(Br)c(Br)c1C(F)(F)F [1.0367]
42 | 2.93^[a] | COC(=O)C1(NC(=O)c2sc(Br)c(Br)c2C(F)(F)F)CC1 [1.0368]
43 | 3.35^[a] | CCOC(=O)C(C)NC(=O)c1sc(Br)c(Br)c1C(F)(F)F (stereo not shown) [1.0369]
44 | 3.26^[a] | CCOC(=O)C1(NC(=O)c2sc(Br)c(Br)c2C(F)(F)F)CC1 [1.0370]
45 | 3.37^[a] | COC(=O)C(NC(=O)c1sc(Br)c(Br)c1C(F)(F)F)C1CC1 (stereo not shown) [1.0371]
46 | 3.67^[a] | CCOC(=O)C1(NC(=O)c2sc(Br)c(Br)c2C(F)(F)F)CCC1 [1.0372]
47 | 4.09^[a] | CCOC(=O)C(NC(=O)c1sc(Br)c(Br)c1C(F)(F)F)C(C)C (stereo not shown) [1.0373]
48 | 3.31^[a] | COC(=O)C(CC(F)F)NC(=O)c1sc(Br)c(Br)c1C(F)(F)F (stereo not shown) [1.0374]
49 | 4.38^[a] | CCOC(=O)C(CC(C)C)NC(=O)c1sc(Br)c(Br)c1C(F)(F)F (stereo not shown) [1.0375]
50 | 2.28^[a] | CCOC(=O)C1(NC(=O)c2cc(C#N)c(Cl)s2)CC1 [1.0380]
51 | 2.32^[a] | CCOC(=O)C1(NC(=O)c2cc(Cl)c(C#N)s2)CC1 [1.0387]
52 | 2.69^[a] | CCOC(=O)C1(NC(=O)c2sc(Cl)c(C#N)c2Cl)CC1 [1.0394]

Continued, compound first:

Row | SMILES | LogP
53 | COC(=O)CNC(=O)c1cc(Br)c(F)s1 [1.0295] | 2.01^[a]
54 | COC(=O)CNC(=O)c1sc(F)c(Cl)c1C [1.0296] | 2.23^[a]
55 | CCOC(=O)CNC(=O)c1sc(F)c(Cl)c1C [1.0297] | 2.59^[a]
56 | CCOC(=O)C(NC(=O)c1sc(F)c(Cl)c1C)C(C)C (stereo not shown) [1.0299] | 3.87^[a]
57 | CCOC(=O)C(CCSC)NC(=O)c1sc(F)c(Cl)c1C (stereo not shown) [1.0300] | 3.64^[a]
58 | CCOC(=O)C(Cc1ccccc1)NC(=O)c1sc(F)c(Cl)c1C (stereo not shown) [1.0301] | 4.15^[a]
59 | COC(=O)CNC(=O)c1sc(C#N)c(Cl)c1C [1.0302] | 2.03^[a]
60 | CCOC(=O)CNC(=O)c1sc(C#N)c(Cl)c1C [1.0303] | 2.39^[a]
61 | CCOC(=O)C(NC(=O)c1sc(C#N)c(Cl)c1C)C(C)C (stereo not shown) [1.0304] | 3.47^[a]
62 | CCOC(=O)C(CCSC)NC(=O)c1sc(C#N)c(Cl)c1C (stereo not shown) [1.0305] | 3.28^[a]
63 | CCOC(=O)C(Cc1ccccc1)NC(=O)c1sc(C#N)c(Cl)c1C (stereo not shown) [1.0306] | 3.77^[a]
64 | COC(=O)CNC(=O)c1cc(F)c(Cl)s1 [1.0307] | 1.94^[a]
65 | CCOC(=O)C(NC(=O)c1cc(F)c(Cl)s1)C(C)C (stereo not shown) [1.0309] | 3.44^[a]
66 | CCOC(=O)C(CCSC)NC(=O)c1cc(F)c(Cl)s1 (stereo not shown) [1.0310] | 3.25^[a]
67 | CCOC(=O)CNC(=O)c1cc(Br)c(F)s1 [1.0311] | 2.33^[a]
68 | CCOC(=O)C(NC(=O)c1cc(Br)c(F)s1)C(C)C (stereo not shown) [1.0313] | 3.54^[a]
69 | CCOC(=O)C(CCSC)NC(=O)c1cc(Br)c(F)s1 (stereo not shown) [1.0314] | 3.31^[a]
70 | CCOC(=O)C(Cc1ccccc1)NC(=O)c1cc(Br)c(F)s1 (stereo not shown) [1.0315] | 3.77^[a]
71 | CCOC(=O)CNC(=O)c1sc(F)c(Br)c1C [1.0317] | 2.67^[a]
72 | CCOC(=O)C(NC(=O)c1sc(F)c(Br)c1C)C(C)C (stereo not shown) [1.0319] | 3.94^[a]
73 | CCOC(=O)C(CCSC)NC(=O)c1sc(F)c(Br)c1C (stereo not shown) [1.0320] | 3.67^[a]
74 | CCOC(=O)C(Cc1ccccc1)NC(=O)c1sc(F)c(Br)c1C (stereo not shown) [1.0321] | 4.23^[a]
75 | O=C(NC(CC(F)F)C(=O)O)c1sc(Cl)c(Cl)c1Br (stereo not shown) [1.0337] | 2.81^[a]
76 | N#CCNC(=O)c1sc(Cl)c(Cl)c1F [1.0342] | 2.30^[a]

Row | SMILES | LogP
77 | COC(=O)CNC(=O)c1sc(Cl)c(Cl)c1F [1.0343] | 2.43^[a]
78 | CCOC(=O)CNC(=O)c1sc(Cl)c(Cl)c1F [1.0344] | 2.83^[a]
79 | CCOC(=O)C(C)NC(=O)c1sc(Cl)c(Cl)c1F (stereo not shown) [1.0345] | 3.34^[a]
80 | COC(=O)C(NC(=O)c1sc(Cl)c(Cl)c1F)C1CC1 (stereo not shown) [1.0346] | 3.36^[a]
81 | CCOC(=O)C(NC(=O)c1sc(Cl)c(Cl)c1F)C(C)C (stereo not shown) [1.0348] | 4.37^[a]
82 | CCOC(=O)C(CC(C)C)NC(=O)c1sc(Cl)c(Cl)c1F (stereo not shown) [1.0350] | 4.63^[a]
83 | CCOC(=O)C(CCSC)NC(=O)c1sc(Cl)c(Cl)c1F (stereo not shown) [1.0351] | 3.95^[a]
84 | CCOC(=O)C(Cc1ccccc1)NC(=O)c1sc(Cl)c(Cl)c1F (stereo not shown) [1.0352] | 4.47^[a]
85 | CCOC(=O)C(CCSC)NC(=O)c1sc(Br)c(Br)c1C(F)(F)F (stereo not shown) [1.0376] | 3.87^[a]
86 | CCOC(=O)C(Cc1ccccc1)NC(=O)c1sc(Br)c(Br)c1C(F)(F)F (stereo not shown) [1.0377] | 4.31^[a]
87 | COC(=O)CNC(=O)c1cc(C#N)c(Cl)s1 [1.0378] | 1.75^[a]
88 | CCOC(=O)CNC(=O)c1cc(C#N)c(Cl)s1 [1.0379] | 2.08^[a]
89 | COC(=O)C(NC(=O)c1cc(C#N)c(Cl)s1)C1CC1 (stereo not shown) [1.0381] | 2.47^[a]
90 | CCOC(=O)C(NC(=O)c1cc(C#N)c(Cl)s1)C(C)C (stereo not shown) [1.0382] | 3.20^[a]
91 | CCOC(=O)C(CCSC)NC(=O)c1cc(C#N)c(Cl)s1 (stereo not shown) [1.0383] | 3.01^[a]
92 | CCOC(=O)C(Cc1ccccc1)NC(=O)c1cc(C#N)c(Cl)s1 (stereo not shown) [1.0384] | 3.47^[a]
93 | COC(=O)CNC(=O)c1cc(Cl)c(C#N)s1 [1.0385] | 1.77^[a]
94 | CCOC(=O)CNC(=O)c1cc(Cl)c(C#N)s1 [1.0386] | 2.10^[a]
95 | COC(=O)C(NC(=O)c1cc(Cl)c(C#N)s1)C1CC1 (stereo not shown) [1.0388] | 2.50^[a]
96 | CCOC(=O)C(NC(=O)c1cc(Cl)c(C#N)s1)C(C)C (stereo not shown) [1.0389] | 3.22^[a]
97 | CCOC(=O)C(CCSC)NC(=O)c1cc(Cl)c(C#N)s1 (stereo not shown) [1.0390] | 3.03^[a]
98 | CCOC(=O)C(Cc1ccccc1)NC(=O)c1cc(Cl)c(C#N)s1 (stereo not shown) [1.0391] | 3.48^[a]
99 | COC(=O)CNC(=O)c1sc(Cl)c(C#N)c1Cl [1.0392] | 2.16^[a]
100 | CCOC(=O)CNC(=O)c1sc(Cl)c(C#N)c1Cl [1.0393] | 2.54^[a]
